Test results as given in US20030165853A1, “Antisense imaging of gene expression of the brain in vivo” (The Regents of the University of California Office of …, priority 2000, published 2003).

Assays:
[1] = mouse, in vivo, iv
Method: (§1) Adult male BALB/c mice were divided into 5 groups of 3 mice each for the pharmacokinetic study. The mice were anesthetized with an intraperitoneal injection of ketamine (100 mg/kg) and xylazine (2 mg/kg). The injection solution contained 5 μCi of [^125I]-HD-PNA with or without conjugation to 2 μg of 8D3-SA in 0.01 M PBS/pH 7.4, and a total volume of 50 μl was administered via the jugular vein of each mouse. Groups of 3 mice each were sacrificed at 0.25, 2, 5, 15, and 60 min after the isotope injection and arterial blood was sampled from the aorta. After spinning the blood samples, the collected supernatant (serum) was counted for [^125I]-radioactivity using a γ-counter (Beckman Instruments, Inc., Fullerton, Calif.). An aliquot of serum was precipitated with cold 10% TCA, and the fraction of total serum radioactivity that was TCA precipitated was determined. The brain and peripheral organs (liver, kidney, heart, lung, and spleen) were removed from each mouse at 60 min after the isotope administration and total [^125I]-radioactivity in the organ was measured.
Pharmacokinetic parameters were determined by fitting the serum TCA-precipitable radioactivity data to a biexponential equation with a weighting factor of [1/A(t)]^2 using a derivative-free nonlinear regression analysis (PARBMDP, Biomedical Computer P-Series, developed at UCLA Health Science Computing Facilities).
where A(t)=% injected dose (ID)/ml serum at a given time (t).

[2] = mouse, in vivo
Method: as §1
The organ permeability-surface area (PS) product of either the unconjugated [^125I]-HD-PNA, or the [^125I]-HD-PNA conjugated to 8D3/SA, was calculated as follows: [formula] […]
The brain delivery of the compound was expressed as percentage of injected dose (ID)/g brain, and was calculated as follows: […]

HD mRNA = assay: HD RNase protection assay; format: binding, human; details: RNase T1/A digestion, PAGE autoradiography
Method: The sense RNA was synthesized with T3 RNA polymerase following linearization of the plasmid with EcoRI. The transcribed RNA was radiolabeled with [^32Pα]ATP to a specific activity of 0.22 μCi/pmol, as previously described (Boado and Pardridge (1994) Bioconj. Chem., 6: 406-410). For the RNAse protection assay, 0.6 pmol of biotinylated HD-PNA or biotinylated luciferase-PNA, with or without conjugation to 6.4 pmol of MAb-SA, was added to 10^5 CPM of [^32P]-labeled sense HD RNA (0.2 pmol) in 3 μl buffer (80 mM NaCl, 7 mM phosphate buffer, pH=7.5, 0.1% BSA), and annealed for 30 minutes at 42° C. Then 20 units RNAse Ti and 2.5 μg RNAse A were added to the samples in 17 μl of RNAse digestion buffer (0.3 M NaCl, 10 mM TRIS pH=7.5, 4 mM EDTA, 0.02% tRNA, 0.02% BSA) and incubated for 30 min at 37° C. RNA fragments were analyzed by 7 M urea/20% polyacrylamide gel electrophoresis following by autoradiography as described by Pardridge et al. (1995) Proc. Natl. Acad. Sci., USA, 92:5592-5596. Labeled RNA and PNAs were heat denatured for 2 minutes at 95° C. and then incubated on ice for 2 minutes immediately before the experiment or conjugation to MAb-SA.

human HD exon 1 = assay: Translation arrest (combined in vitro transcription/translation of HD exon 1); format: biochemical; details: 5-50 μM antisense agent, [3H]-leucine incorporation
Method: The hybridization of the antisense HD-PNA to the HD transcript was determined using a combination of transcription and translation that mimics in vivo conditions as previously described (Boado et al. (2000) J. Pharmacol. Exp. Ther., 295: 239-243). The cDNA containing the human HD exon 1 was sublconed into the Bluescript KS+plasmid, between either T3 or T7 RNA polymerase promoters, and this plasmid is designated clone 839, as described previously (Id). Transcription/translation of human HD exon 1 clone 839 was performed with 0.2 μg clone 839 plasmid DNA in the presence of T3 RNA polymerase, 5 μCi [^3H]-leucine, and 50% v/v rabbit reticulocyte lysate using the T3-TNT translation system (Promega, Madison, Wis.), as described previously (Id). Dose response studies with newly synthesized PNAs were performed and compared with a positive control antisense phosphodiester-ODN, designated ODN-III, as described (Id). Samples were incubated for 30 min at 30 ° C., and incorporation of [^3H]-leucine into HD exon 1 protein was analyzed by trichloroacetic acid (TCA) precipitation, and data expressed as percent of control, which lacked any added PNA or ODN. The HD exon 1 insert is 10% of the total plasmid, or about […] per 12.5 μL reaction. Since the TNT produces 10-30 RNA copies per plasmid, the final concentration of the HD RNA in the TNT reaction is approximately 1 μM. […]

[^125I]-PNA: biotinylated 16-mer PNA complementary to nucleotides −1 to +15 of human HD exon 1, Tyr-Lys, amidated carboxyl terminus; radioiodinated (CTTCCATTTTACCAAC; all peptide nucleic acid (PNA); biotinylated, Tyr-Lys added, amidated C-terminus, radioiodinated, positions not given here)
A1 [1]: 32 ± 2 % ID/ml
A2 [1]: 6.3 ± 0.7 % ID/ml
AUC (60 min) [1]: 308 ± 36 % ID · min/ml
AUC (∞) [1]: 399 ± 49 % ID · min/ml
K1 [1]: 0.37 ± 0.04 min⁻¹
K2 [1]: 0.0206 ± 0.0014 min⁻¹
VSS [1]: 0.374 ± 0.042 L/kg
t½^1 [1]: 1.9 ± 0.2 min
t½^2 [1]: 34 ± 3 min
BBB PS product [2]: < 0.3 µL/min/g
hybridization to HD mRNA (RNase protected fragment) (HD mRNA): specifically hybridizes to the target mRNA
inhibition of cell free translation of HD exon 1 protein (human HD exon 1): inhibits the cell free translation
